Assay results: the NIST ThermoML archive (doi:10.1016/j.jct.2016.07.005)

Experiment: xn = mol fraction of the nth substance listed
Conditions: 100 kPa, Liquid; for viscosity: Concentric cylinders viscometry; for mass density: Vibrating tube method

CN1CCC[C@H]1c1cccnc1 [(-)-3-(N-methylpyrrolidino)pyridine] + CC(O)CO
Conditions | mass density [kg/m3] | viscosity [mPa·s]
293.15 K, x1 = 0.1 | 1035.04 | 59.35
293.15 K, x1 = 0.2009 | 1033.1 | 53.52
293.15 K, x1 = 0.3 | 1030.49 | 44.85
293.15 K, x1 = 0.4016 | 1027.64 | 35.02
293.15 K, x1 = 0.5 | 1024.73 | 26.04
293.15 K, x1 = 0.6005 | 1021.54 | 18.44
293.15 K, x1 = 0.7 | 1018.73 | 12.89
293.15 K, x1 = 0.7983 | 1015.98 | 9.269
293.15 K, x1 = 0.9 | 1012.96 | 6.875
293.15 K, x1 = 1 | 1010.23 | 4.694
298.15 K, x1 = 0.1 | 1031.1 | 43.28
298.15 K, x1 = 0.2009 | 1029.06 | 38.88
298.15 K, x1 = 0.3 | 1026.32 | 32.72
298.15 K, x1 = 0.4016 | 1023.44 | 25.84
298.15 K, x1 = 0.5 | 1020.54 | 19.6
298.15 K, x1 = 0.6005 | 1017.36 | 14.25
298.15 K, x1 = 0.7 | 1014.59 | 10.27
298.15 K, x1 = 0.7983 | 1011.83 | 7.576
298.15 K, x1 = 0.9 | 1008.87 | 5.707
298.15 K, x1 = 1 | 1006.16 | 4.048
303.15 K, x1 = 0.1 | 1027.18 | 32.21
303.15 K, x1 = 0.2009 | 1025 | 28.85
303.15 K, x1 = 0.3 | 1022.19 | 24.37
303.15 K, x1 = 0.4016 | 1019.27 | 19.44
303.15 K, x1 = 0.5 | 1016.35 | 14.99
303.15 K, x1 = 0.6005 | 1013.17 | 11.16
303.15 K, x1 = 0.7 | 1010.42 | 8.284
303.15 K, x1 = 0.7983 | 1007.68 | 6.286
303.15 K, x1 = 0.9 | 1004.77 | 4.834
303.15 K, x1 = 1 | 1002.1 | 3.518
308.15 K, x1 = 0.1 | 1023.28 | 24.46
308.15 K, x1 = 0.2009 | 1020.91 | 21.87
308.15 K, x1 = 0.3 | 1018.08 | 18.56
308.15 K, x1 = 0.4016 | 1015.09 | 14.98
308.15 K, x1 = 0.5 | 1012.14 | 11.73
308.15 K, x1 = 0.6005 | 1008.98 | 8.935
308.15 K, x1 = 0.7 | 1006.13 | 6.791
308.15 K, x1 = 0.7983 | 1003.54 | 5.264
308.15 K, x1 = 0.9 | 1000.64 | 4.12
308.15 K, x1 = 1 | 998.055 | 3.088
313.15 K, x1 = 0.1 | 1019.3 | 18.79
313.15 K, x1 = 0.2009 | 1016.8 | 16.79
313.15 K, x1 = 0.3 | 1013.89 | 14.33
313.15 K, x1 = 0.4016 | 1010.88 | 11.69
313.15 K, x1 = 0.5 | 1007.92 | 9.302
313.15 K, x1 = 0.6005 | 1004.79 | 7.224
313.15 K, x1 = 0.7 | 1002.03 | 5.605
313.15 K, x1 = 0.7983 | 999.39 | 4.425
313.15 K, x1 = 0.9 | 996.55 | 3.532
313.15 K, x1 = 1 | 994.014 | 2.758
318.15 K, x1 = 0.1 | 1015.29 | 14.91
318.15 K, x1 = 0.2009 | 1012.66 | 13.34
318.15 K, x1 = 0.3 | 1009.7 | 11.45
318.15 K, x1 = 0.4016 | 1006.65 | 9.438
318.15 K, x1 = 0.5 | 1003.69 | 7.62
318.15 K, x1 = 0.6005 | 1000.58 | 6.031
318.15 K, x1 = 0.7 | 997.85 | 4.779
318.15 K, x1 = 0.7983 | 995.25 | 3.839
318.15 K, x1 = 0.9 | 992.46 | 3.094
318.15 K, x1 = 1 | 989.984 | 2.411
323.15 K, x1 = 0.1 | 1011.25 | 12.03
323.15 K, x1 = 0.2009 | 1008.51 | 10.78
323.15 K, x1 = 0.3 | 1005.48 | 9.306
323.15 K, x1 = 0.4016 | 1002.41 | 7.746
323.15 K, x1 = 0.5 | 999.45 | 6.339
323.15 K, x1 = 0.6005 | 996.37 | 5.104
323.15 K, x1 = 0.7 | 993.67 | 4.124
323.15 K, x1 = 0.7983 | 991.1 | 3.375
323.15 K, x1 = 0.9 | 988.38 | 2.765
323.15 K, x1 = 1 | 985.962 | 2.195

CN1CCC[C@H]1c1cccnc1 [(-)-3-(N-methylpyrrolidino)pyridine] + CCC(C)O
Conditions | mass density [kg/m3] | viscosity [mPa·s]
293.15 K, x1 = 0.1 | 841.874 | 3.496
293.15 K, x1 = 0.2036 | 873.003 | 3.46
293.15 K, x1 = 0.3 | 898.284 | 3.593
293.15 K, x1 = 0.4 | 921.306 | 3.845
293.15 K, x1 = 0.5 | 941.501 | 4.157
293.15 K, x1 = 0.6 | 959.218 | 4.476
293.15 K, x1 = 0.6956 | 974.099 | 4.734
293.15 K, x1 = 0.8 | 988.293 | 4.907
293.15 K, x1 = 0.9 | 1000.07 | 4.909
293.15 K, x1 = 1 | 1010.23 | 4.694
298.15 K, x1 = 0.1 | 837.728 | 2.96
298.15 K, x1 = 0.2036 | 868.857 | 2.981
298.15 K, x1 = 0.3 | 894.137 | 3.11
298.15 K, x1 = 0.4 | 917.159 | 3.319
298.15 K, x1 = 0.5 | 937.354 | 3.566
298.15 K, x1 = 0.6 | 955.075 | 3.813
298.15 K, x1 = 0.6956 | 969.963 | 4.015
298.15 K, x1 = 0.8 | 984.171 | 4.158
298.15 K, x1 = 0.9 | 995.971 | 4.179
298.15 K, x1 = 1 | 1006.16 | 4.048
303.15 K, x1 = 0.1 | 833.532 | 2.521
303.15 K, x1 = 0.2036 | 864.676 | 2.579
303.15 K, x1 = 0.3 | 889.965 | 2.704
303.15 K, x1 = 0.4 | 912.993 | 2.881
303.15 K, x1 = 0.5 | 933.194 | 3.08
303.15 K, x1 = 0.6 | 950.921 | 3.277
303.15 K, x1 = 0.6956 | 965.82 | 3.439
303.15 K, x1 = 0.8 | 980.047 | 3.558
303.15 K, x1 = 0.9 | 991.873 | 3.591
303.15 K, x1 = 1 | 1002.1 | 3.518
308.15 K, x1 = 0.1 | 829.273 | 2.162
308.15 K, x1 = 0.2036 | 860.452 | 2.244
308.15 K, x1 = 0.3 | 885.762 | 2.367
308.15 K, x1 = 0.4 | 908.808 | 2.523
308.15 K, x1 = 0.5 | 929.021 | 2.691
308.15 K, x1 = 0.6 | 946.761 | 2.853
308.15 K, x1 = 0.6956 | 961.675 | 2.987
308.15 K, x1 = 0.8 | 975.925 | 3.09
308.15 K, x1 = 0.9 | 987.783 | 3.128
308.15 K, x1 = 1 | 998.055 | 3.088
313.15 K, x1 = 0.1 | 824.949 | 1.875
313.15 K, x1 = 0.2036 | 856.182 | 1.975
313.15 K, x1 = 0.3 | 881.53 | 2.094
313.15 K, x1 = 0.4 | 904.598 | 2.232
313.15 K, x1 = 0.5 | 924.831 | 2.373
313.15 K, x1 = 0.6 | 942.588 | 2.508
313.15 K, x1 = 0.6956 | 957.521 | 2.62
313.15 K, x1 = 0.8 | 971.798 | 2.713
313.15 K, x1 = 0.9 | 983.692 | 2.761
313.15 K, x1 = 1 | 994.014 | 2.758
318.15 K, x1 = 0.1 | 820.559 | 1.627
318.15 K, x1 = 0.2036 | 851.865 | 1.734
318.15 K, x1 = 0.3 | 877.259 | 1.848
318.15 K, x1 = 0.4 | 900.359 | 1.974
318.15 K, x1 = 0.5 | 920.616 | 2.099
318.15 K, x1 = 0.6 | 938.394 | 2.214
318.15 K, x1 = 0.6956 | 953.35 | 2.308
318.15 K, x1 = 0.8 | 967.662 | 2.383
318.15 K, x1 = 0.9 | 979.601 | 2.419
318.15 K, x1 = 1 | 989.984 | 2.411
323.15 K, x1 = 0.1 | 816.09 | 1.434
323.15 K, x1 = 0.2036 | 847.491 | 1.55
323.15 K, x1 = 0.3 | 872.943 | 1.662
323.15 K, x1 = 0.4 | 896.089 | 1.778
323.15 K, x1 = 0.5 | 916.374 | 1.888
323.15 K, x1 = 0.6 | 934.178 | 1.989
323.15 K, x1 = 0.6956 | 949.16 | 2.071
323.15 K, x1 = 0.8 | 963.511 | 2.141
323.15 K, x1 = 0.9 | 975.504 | 2.183
323.15 K, x1 = 1 | 985.962 | 2.195
